What was measured:
cells = details: Homo sapiens, MDA-MB-231, 48 h
Description: Downregulation of H3K9me2 level in human MDA-MB-231 cells measured after 48 hrs by Western blot analysis

MDA-MB-231 = experiment: Antiproliferative activity against human MDA-MB-231 cells by MTT assay; type: functional, cell-based

Structure (SMILES)	IC50 (cells) [nM]	EC50 (MDA-MB-231) [nM]
COc1cc2c(NC3CCN(C(C)C)CC3)nc(C3CCCCC3)nc2cc1OCCCN1CCCC1	81	–
COc1cc2nc(N3CCCN(C)CC3)nc(NC3CCN(Cc4ccccc4)CC3)c2cc1OC	500	2700

Source: ChEMBL document CHEMBL5532707, “SETDB1 as a cancer target: challenges and perspectives in drug design” (RSC Med Chem, 2024)
